Test results reported in patent US20120029003A1, “GALECTIN-3 AND STATIN THERAPY” (BG Medicine, Inc., priority 2010, published 2012).

How the values were obtained:
heart failure patients = conditions: unselected heart failure patients; CORONA and GISSI-HF trials; cited from earlier work
[1] = tested on: patients with chronic heart failure (HF); assay: Clinical trial of rosuvastatin vs placebo in chronic heart failure, analysed by baseline galectin-3 category; format: in vivo, human
Source text: A clinical trial enrolled patients with chronic heart failure (HF) (New York Heart Association functional class II, III or IV) and with left ventricular ejection fraction less than or equal to 40% (less than or equal to 35% for patients in New York Heart Association functional class II). The design and primary results of the trial are reported in published literature [J. Kjekshus et al., “Rosuvastatin in Older Patients with Systolic Heart Failure.” N Engl J. Med. 2007 Nov. 29; 357(22):2248-61]. Patients were randomly assigned to receive 10 milligrams of rosuvastatin or placebo per day. Of the patients in the trial, a subset of 1,462 subjects also participated in a sub-study in which blood was collected at baseline, defined as the time of enrollment in the trial. Baseline galectin-3 levels were evaluated in these […] subjects.
Blood plasma samples were drawn at baseline from participants in a non-fasting state. All samples were stored at −80° C. Plasma galectin-3 levels were determined on these plasma specimens using a commercial enzyme-linked immunosorbent assay (BGM Galectin-3 Assay; BG Medicine, Waltham, Mass.) according to the manufacturer's instructions.
Determination of galectin-3 concentration in serum samples was assessed using ELISA kits (BGM Galectin-3 Assay; BG Medicine Inc., Waltham, Mass., USA). The assay sensitivity (lowest concentration different from zero) was 0.96 ng/mL. Intra- and inter-assay variations were less than 8% and 10% respectively.
For the main objective of investigating the effects of rosuvastatin treatment according to baseline galectin-3 level, galectin-3 categories were defined based on the median baseline value across all 1,462 subjects for whom a galectin-3 measurement was available. For each of six endpoints, a formal interaction test was conducted within a Cox proportional hazards model comprising treatment group (binary variable), galectin-3 category (dichotomous variable), and the interaction term. Subsequently, Cox proportional hazards models were used to estimate the hazard ratios (HRs) and 95% confidence intervals (CIs) comparing rosuvastatin and placebo treatments by galectin-3 categories. Fully adjusted models included the following 11 covariates, all evaluated at baseline: age (per year), gender, LVEF (per unit), NYHA class (due to the small number of subjects with class IV, class III and IV were combined), body mass index (BMI) (per unit), diabetes mellitus (yes/no), intermittent claudication (yes/no), heart rate (per unit), estimated glomerular filtration rate (eGFR) (per unit), the ratio of apolipoprotein B to apolipoprotein A1, and N-terminal B-type natriuretic peptide (NT-proBNP) (the variable NT-proBNP was logarithmically transformed using base e). Incident event rates were analyzed using Poisson regression. Baseline characteristics were compared by galectin-3 category using Student's t-test for variables expressed as means and standard deviation. All P-values are two two-tailed. All analyses were performed with SAS software, version 9.1 (SAS Institute), or R software, version 2.

CC(C)c1nc(N(C)S(C)(=O)=O)nc(-c2ccc(F)cc2)c1/C=C/[C@@H](O)C[C@@H](O)CC(=O)O [Rosuvastatin, rosuvastatin]
clinical benefit of statin therapy in heart failure patients (heart failure patients): did not demonstrate a significant clinical benefit
Rate of subjects experiencing the primary outcome, Rosuvastatin rate ([1]; Galectin-3 > 19.0 ng/mL, 728 subjects): 15.1 per 100 person-years of follow-up
Rate of subjects experiencing the primary outcome, Rosuvastatin rate ([1]; Galectin-3 ≦ 19.0 ng/mL, 734 subjects): 7.8 per 100 person-years of follow-up
hazard ratio (HR) for the primary endpoint, rosuvastatin compared to placebo ([1]; baseline galectin-3 >19.0 ng/mL (N=728), 10 mg rosuvastatin per day, adjusted HR): 1.07
rate of primary events ([1]; baseline galectin-3 >19.0 ng/mL, rosuvastatin group, 10 mg per day): 15.1 events per 100 patient-years
hazard ratio (HR) for the primary endpoint (earlier of cardiovascular death, non-fatal myocardial infarction or non-fatal stroke), rosuvastatin compared to placebo ([1]; baseline galectin-3 less than or equal to 19.0 ng/mL (N=734), 10 mg rosuvastatin per day, adjusted for 11 clinical and biochemical covariates): 0.65
difference in rate of primary events, rosuvastatin compared to placebo ([1]; baseline galectin-3 less than or equal to 19.0 ng/mL, 7.8 vs 11.2 events per 100 patient-years): 30.4%
rate of primary events ([1]; baseline galectin-3 less than or equal to 19.0 ng/mL, subjects randomized to rosuvastatin 10 mg per day): 7.8 events per 100 patient-years
